Activity calls are given as the source filed them. No rule for the calls is given here.
System: GENE-TOX genotoxicity assays, various organisms and cells
Assay: GENE-TOX mutagenicity studies
Conditions: for call: Assay Type: In vivo carcinogenicity studies
[1] = Species/Cell Type: Chinese hamster lung (V79) cells, Assay Type: Forward gene mutation at the HPRT or ouabain locus, Assay Code: V79+, Evaluation Type: Evaluation A (Pre-1980)
[2] = Species/Cell Type: Nonhuman, Assay Code: CCG+, Evaluation Type: Evaluation A (Pre-1980)
[3] = Species/Cell Type: Salmonella typhimurium (one or more of the five standard strains: TA98, TA100, TA1535, TA1537, and TA1538), Assay Type: Histidine reverse gene mutation, Ames assay, Assay Code: SAL+*, Activation: With metabolic activation, Evaluation Type: Evaluation A (Pre-1980)
[4] = Species/Cell Type: Allium cepa, Assay Type: Chromosome aberrations, Assay Code: ALC+, Evaluation Type: Evaluation A (Pre-1980)
[5] = Species/Cell Type: Salmonella typhimurium (one or more of the five standard strains: TA98, TA100, TA1535, TA1537, and TA1538), Assay Type: Histidine reverse gene mutation, Ames assay, Assay Code: SALT, Evaluation Type: Evaluation A (Pre-1980)
[6] = Species/Cell Type: Salmonella typhimurium (one or more of the five standard strains: TA98, TA100, TA1535, TA1537, and TA1538), Assay Type: Histidine reverse gene mutation, Ames assay, Assay Code: SAL+, Evaluation Type: Evaluation A (Pre-1980)
[7] = Species/Cell Type: Mammalian polychromatic erythrocytes, Assay Type: Micronucleus test, chromosome aberrations, Assay Code: MNTT, Evaluation Type: Evaluation A (Pre-1980)
[8] = Species/Cell Type: Syrian hamster embryo (SHE) cells, Assay Type: Cell transformation, clonal assay, Assay Code: CTC-, Evaluation Type: Evaluation A (Pre-1980)
[9] = Species/Cell Type: Salmonella typhimurium (one or more of the five standard strains: TA98, TA100, TA1535, TA1537, and TA1538), Assay Type: Histidine reverse gene mutation, Ames assay, Assay Code: SAL-, Evaluation Type: Evaluation A (Pre-1980)
[10] = Species/Cell Type: Nonhuman, Assay Code: CCG-, Evaluation Type: Evaluation A (Pre-1980)
[11] = Species/Cell Type: Drosophila melanogaster, Assay Type: Sex-linked recessive lethal gene mutation, Assay Code: SRL+, Evaluation Type: Evaluation A (Pre-1980)
[12] = Species/Cell Type: Nonhuman, Assay Type: Sister-chromatid exchange (SCE) in vitro, Assay Code: SC2+D, Dose Response: With dose response, Evaluation Type: Evaluation B (Post-1980)

Structure (SMILES): CCCN(CCC)N=O
- mutagenic call [1]: active; positive
- mutagenic call (Species/Cell Type: Human diploid fibroblasts, Assay Type: Unscheduled DNA synthesis (UDS) in vitro, DNA effects, Assay Code: UDHT, Evaluation Type: Evaluation A (Pre-1980)): no conclusion
- call [2]: active; positive
- mutagenic call (Species/Cell Type: Nonhuman, Assay Type: Sister-chromatid exchange (SCE) in vivo, Assay Code: SC3+, Evaluation Type: Evaluation B (Post-1980)): active; positive
- mutagenic call [3]: active; positive
- mutagenic call (Species/Cell Type: Syrian hamster embryo (SA7/SHE) cells, Assay Type: Cell transformation, viral enhanced, Assay Code: CT7+, Evaluation Type: Evaluation A (Pre-1980)): active; positive

Structure (SMILES): CCCCC[C@H](O)/C=C/[C@@H]1[C@@H](C/C=C\CCCC(=O)O)[C@@H](O)C[C@H]1O
- mutagenic call (Species/Cell Type: Rabbit, Sex: Male, Assay Type: Sperm morphology, Assay Code: SPR+, Evaluation Type: Evaluation A (Pre-1980)): active; positive

Structure (SMILES): O=C(O)CNc1ccc(O)cc1
- mutagenic call [4]: active; positive

Structure (SMILES): C#CCNC(=NCCSCc1nc[nH]c1C)NC#N
- mutagenic call (Species/Cell Type: Mammalian polychromatic erythrocytes, Assay Type: Micronucleus test, chromosome aberrations, Assay Code: MNT-, Evaluation Type: Evaluation B (Post-1980)): inactive; negative

Structure (SMILES): CCN(CC)CC[NH+]([O-])c1ccc(C)c2sc3cc(Cl)ccc3c(=O)c12 (stereo unspecified)
- mutagenic call [3]: active; positive

Structure (SMILES): O=[N+]([O-])c1cnc[nH]1
- mutagenic call [5]: no conclusion

Structure (SMILES): CCn1c2ccccc2c2cc(N)ccc21
- call [2]: active; positive

Structure (SMILES): CON(C)C(=O)Nc1ccc(Cl)c(Cl)c1
- mutagenic call (Species/Cell Type: Hordeum vulgare (barley), Assay Type: Chromosome aberrations, Assay Code: HOC+, Evaluation Type: Evaluation A (Pre-1980)): active; positive
- mutagenic call [5]: no conclusion
- mutagenic call (Species/Cell Type: Vicia faba, Assay Type: Chromosome aberrations, Assay Code: VIC+, Evaluation Type: Evaluation A (Pre-1980)): active; positive

Structure (SMILES): O=Nc1ccc2c(c1)Cc1ccccc1-2
- mutagenic call (Species/Cell Type: Escherichia coli polA (W3119 vs P3478), Assay Type: Rec-assay, DNA effects (bacterial DNA repair), Assay Code: RE1+, Evaluation Type: Evaluation A (Pre-1980)): active; positive
- mutagenic call [6]: active; positive

Structure (SMILES): Clc1cccc(-c2ccc(Cl)c(Cl)c2Cl)c1Cl
- mutagenic call [7]: no conclusion
- mutagenic call (Species/Cell Type: Mouse, Sex: Male, Assay Type: Sperm morphology, Assay Code: SPI-, Evaluation Type: Evaluation A (Pre-1980)): inactive; negative
- mutagenic call (Species/Cell Type: Rodents, Sex: Male, Assay Type: Dominant lethal test, Assay Code: DLT-, Evaluation Type: Evaluation A (Pre-1980)): inactive; negative
- mutagenic call [8]: inactive; negative

Structure (SMILES): O=[N+]([O-])c1ccc(Oc2ccc(Cl)cc2Cl)cc1
- mutagenic call [7]: no conclusion
- call [2]: active; positive

Structure (SMILES): Cc1ccc(S(=O)(=O)N(C)N=O)cc1
- mutagenic call (Species/Cell Type: Arabidopsis species, Assay Type: Gene mutation, Assay Code: ARM+, Evaluation Type: Evaluation A (Pre-1980)): active; positive

Structure (SMILES): O=[N+]([O-])c1ccc(SSc2ccc([N+](=O)[O-])cc2)cc1
- mutagenic call [6]: active; positive

Structure (SMILES): Cc1cc(-c2ccc(N/N=C3/C(=O)c4c(N)cc(S(=O)(=O)O)cc4C=C3S(=O)(=O)O)c(C)c2)ccc1N/N=C1/C(=O)c2c(N)cc(S(=O)(=O)O)cc2C=C1S(=O)(=O)O
- mutagenic call (Species/Cell Type: Bacillus subtilis (H17 vs M45), Assay Type: Rec-assay, spot test, DNA effects (bacterial DNA repair), Assay Code: REW+, Evaluation Type: Evaluation A (Pre-1980)): active; positive
- call [2]: active; positive
- mutagenic call [9]: inactive; negative

Structure (SMILES): CC(=O)C(N=Nc1ccc(-c2ccc(N=NC(C(C)=O)C(=O)Nc3ccccc3)c(Cl)c2)cc1Cl)C(=O)Nc1ccccc1 (stereo unspecified)
- call [10]: inactive; negative

Structure (SMILES): COC12C(=O)N(C)C(=O)N(C)C1(OC)N(C)C(=O)N2C (stereo unspecified)
- mutagenic call (Species/Cell Type: Allium cepa, Assay Type: Chromosome aberrations, Assay Code: ALC-, Evaluation Type: Evaluation A (Pre-1980)): inactive; negative

Structure (SMILES): C1=Cc2c(cc3ccc4cccc5ccc2c3c45)CC1
- mutagenic call [3]: active; positive

Structure (SMILES): Nc1ccc(O)c2c1C(=O)c1ccccc1C2=O
- mutagenic call [6]: active; positive

Structure (SMILES): CC1=CCc2c1c(C)cc1c2ccc2ccccc21
- mutagenic call [3]: active; positive

Structure (SMILES): C#C[C@]1(O)CC[C@H]2[C@@H]3CCc4cc(CC)ccc4[C@H]3CC[C@@]21C (tested in a mixture with another compound)
- mutagenic call (Species/Cell Type: Rodents, Sex: Male, Assay Type: Dominant lethal test, Assay Code: DLTT, Evaluation Type: Evaluation A (Pre-1980)): no conclusion

Structure (SMILES): CCOS(=O)(=O)CCCS(=O)(=O)OCC
- mutagenic call (Species/Cell Type: Arabidopsis species, Assay Type: Gene mutation, Assay Code: ARM+D, Dose Response: With dose response, Evaluation Type: Evaluation A (Pre-1980)): active; positive
- mutagenic call (Species/Cell Type: Hordeum vulgare (barley), Assay Type: Chromosome aberrations, Assay Code: HOC+D, Dose Response: With dose response, Evaluation Type: Evaluation A (Pre-1980)): active; positive

Structure (SMILES): CC(COc1ccccc1)N(CCCl)Cc1ccccc1 (stereo unspecified)
- call [2]: active; positive

Structure (SMILES): CCN(N=O)C(C)(C)C
- mutagenic call (Species/Cell Type: Drosophila melanogaster, Assay Type: Sex-linked recessive lethal gene mutation, Assay Code: SRLT, Evaluation Type: Evaluation A (Pre-1980)): no conclusion

Structure (SMILES): O=C(O)c1ccccc1NCCc1ccccc1
- mutagenic call (Species/Cell Type: Mammalian polychromatic erythrocytes, Assay Type: Micronucleus test, chromosome aberrations, Assay Code: MNTT, Evaluation Type: Evaluation B (Post-1980)): no conclusion

Structure (SMILES): O=NN(CCCl)C(=O)NCCCCNC(=O)N(CCCl)N=O
- mutagenic call [11]: active; positive
- mutagenic call (Species/Cell Type: Saccharomyces cerevisiae, Assay Type: Mitotic recombination or gene conversion, Assay Code: YEC+, Evaluation Type: Evaluation A (Pre-1980)): active; positive

Structure (SMILES): Clc1nc(Cl)nc(Nc2ccccc2Cl)n1
- mutagenic call (Species/Cell Type: Fischer rat embryo (RLV/1706) cells, Assay Type: Cell transformation, viral enhanced, Assay Code: CTR+, Evaluation Type: Evaluation A (Pre-1980)): active; positive
- call [10]: inactive; negative

Structure (SMILES): C1=CC2OC2c2cc3ccc4cccc5ccc(c21)c3c45 (stereo unspecified)
- mutagenic call (Species/Cell Type: Chinese hamster lung (V79) cells, Assay Type: Forward gene mutation at the HPRT or ouabain locus, Assay Code: V79-, Evaluation Type: Evaluation A (Pre-1980)): inactive; negative
- call (Species/Cell Type: Nonhuman, Assay Code: CCG+L, Evaluation Type: Evaluation A (Pre-1980)): active; positive
- mutagenic call [12]: active; positive
- mutagenic call [6]: active; positive

Structure (SMILES): CC(C)NCC(Cl)c1ccc2ccccc2c1 (stereo unspecified)
- mutagenic call (Species/Cell Type: Mouse, Sex: Male, Assay Type: Sperm morphology, Assay Code: SPI+, Evaluation Type: Evaluation A (Pre-1980)): active; positive

Structure (SMILES): CC(C)=CC1C(C(=O)OCc2coc(Cc3ccccc3)c2)C1(C)C (stereo unspecified)
- mutagenic call (Species/Cell Type: Human diploid fibroblasts, Assay Type: Unscheduled DNA synthesis (UDS) in vitro, DNA effects, Assay Code: UDH-, Evaluation Type: Evaluation A (Pre-1980)): inactive; negative
- mutagenic call (Species/Cell Type: Saccharomyces cerevisiae, Assay Type: Mitotic recombination or gene conversion, Assay Code: YEH-, Evaluation Type: Evaluation A (Pre-1980)): inactive; negative

Structure (SMILES): Cc1cc(C(C)(C)C)c(O)c(C(C)(C)C)c1
- mutagenic call [4]: active; positive
- mutagenic call (Species/Cell Type: Drosophila melanogaster, Assay Type: Aneuploidy, whole sex chromosome loss, chromosome aberrations, Assay Code: DAC+M, Evaluation Type: Evaluation A (Pre-1980)): active; positive
- mutagenic call (Species/Cell Type: Drosophila melanogaster, Assay Type: Sex-linked recessive lethal gene mutation, Assay Code: SRL-, Evaluation Type: Evaluation A (Pre-1980)): inactive; negative
- mutagenic call (Species/Cell Type: Drosophila melanogaster, Sex: Male, Assay Type: Heritable translocation test, chromosome aberrations, Assay Code: DHTT, Evaluation Type: Evaluation A (Pre-1980)): no conclusion
- mutagenic call [7]: no conclusion
- mutagenic call (Species/Cell Type: Mouse, Sex: Male, Assay Type: Specific locus test, gene mutation, Assay Code: SLT-, Evaluation Type: Evaluation A (Pre-1980)): inactive; negative
- mutagenic call (Species/Cell Type: Mouse, Sex: Male, Assay Type: Sperm morphology, Assay Code: SPIT, Evaluation Type: Evaluation A (Pre-1980)): no conclusion
- mutagenic call [9]: inactive; negative

Structure (SMILES): BrCc1c2ccccc2cc2c1ccc1ccccc12
- mutagenic call [1]: active; positive
- mutagenic call [11]: active; positive
- mutagenic call (Species/Cell Type: Escherichia coli WP2, Assay Type: Tryptophan reverse gene mutation, Assay Code: WP2+D, Dose Response: With dose response, Evaluation Type: Evaluation A (Pre-1980)): active; positive
- mutagenic call (Species/Cell Type: Escherichia coli WP2 UVRA, Assay Type: Tryptophan reverse gene mutation, Assay Code: WPU+D, Dose Response: With dose response, Evaluation Type: Evaluation A (Pre-1980)): active; positive
- mutagenic call (Species/Cell Type: Human diploid fibroblasts, Assay Type: Unscheduled DNA synthesis (UDS) in vitro, DNA effects, Assay Code: UDH+, Evaluation Type: Evaluation A (Pre-1980)): active; positive
- call [2]: active; positive
- mutagenic call [12]: active; positive
- mutagenic call [8]: inactive; negative

From PubChem BioAssay AID1259408 (Genetic Toxicology Data Bank (GENE-TOX), 2018)
